In article PMC2874894 (Investigative ophthalmology & visual science, 2009):

Target: rPASP (Pseudomonas aeruginosa small protease) (Pseudomonas aeruginosa, UniProt Q9I690)
Assay: fluorescein-gelatin hydrolysis, fluorescence
Format: biochemical
Settings: fluorescein-conjugated gelatin substrate; rPASP 10 ug; 24 h, 37 °C

Sequence of rPASP (Pseudomonas aeruginosa small protease) (Q9I690 whole entry): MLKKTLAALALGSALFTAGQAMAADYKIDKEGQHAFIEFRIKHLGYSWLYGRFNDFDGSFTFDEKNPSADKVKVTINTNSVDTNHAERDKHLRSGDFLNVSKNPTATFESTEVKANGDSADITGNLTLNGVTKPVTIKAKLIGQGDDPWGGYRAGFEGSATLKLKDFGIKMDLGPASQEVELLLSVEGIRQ

In the case of `Cc1ccc(S(=O)(=O)N[C@@H](CCCCN)C(=O)CCl)cc1` [TLCK], the dose-dependent inhibition is reported as “Only TLCK demonstrated dose-dependent inhibition of rPASP activity”.
